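Briefly, cells in 96-well plates were exposed to five compound concentrations for 48 h, and endpoints were estimated by linear interpolation. GI50 is the concentration that inhibits growth by half.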 Calls of active or inactive are those of the source. No stated cut-off is given here; in the data, active = GI50 up to about 1.1 µM and inactive = higher.
Tests used:
Assay in all cases: NCI-60 cell line screen, 48 h
[1] = tested on: UACC-257
[2] = tested on: SF-268
[3] = tested on: A549
[4] = tested on: RXF 393
[5] = tested on: OVCAR-3
[6] = tested on: LOX IMVI
[7] = tested on: HL-60
[8] = tested on: K562
[9] = tested on: TK-10
[10] = tested on: MOLT-4
[11] = tested on: OVCAR-8
[12] = tested on: SK-OV-3
[13] = tested on: SK-MEL-5
[14] = tested on: CCRF-CEM
[15] = tested on: NCI-H23
[16] = tested on: UO-31

| Structure (SMILES) | GI50 [1] | GI50 [2] | GI50 [3] | GI50 [4] | GI50 [5] | GI50 [6] | GI50 [7] | GI50 [8] | GI50 [9] | GI50 [10] | GI50 [11] | GI50 [12] | GI50 [13] | GI50 [14] | GI50 [15] | GI50 [16] |
| --- | --- | --- | --- | --- | --- | --- | --- | --- | --- | --- | --- | --- | --- | --- | --- | --- |
| O=NN(CCCl)C(=O)NCc1ccc[n+]([O-])c1 | > 100 µM (inactive) | 37.2 µM (inactive) | 93.8 µM (inactive) | > 100 µM (inactive) | > 100 µM (inactive) | 70.6 µM (inactive) | 76.4 µM (inactive) | > 100 µM (inactive) | > 100 µM (inactive) | 60.8 µM (inactive) | > 100 µM (inactive) | > 100 µM (inactive) | > 100 µM (inactive) | 65.8 µM (inactive) | > 100 µM (inactive) |  |
| COc1cccc2nc3cc(C)c(C)cc3nc12 | > 100 µM (inactive) | > 100 µM (inactive) | > 100 µM (inactive) | > 100 µM (inactive) | > 100 µM (inactive) | 96.8 µM (inactive) | > 100 µM (inactive) | > 100 µM (inactive) | > 100 µM (inactive) | > 100 µM (inactive) | > 100 µM (inactive) | 78.3 µM (inactive) | 97.5 µM (inactive) | > 100 µM (inactive) | > 100 µM (inactive) | 61.2 µM (inactive) |
| CCOC(=O)CN(Cc1ccccc1)Cc1c(C(=O)c2ccccc2)c2ccccc2n1C(=O)c1ccccc1 |  | > 100 µM (inactive) | > 100 µM (inactive) | > 10 µM (inactive) | > 100 µM (inactive) | > 100 µM (inactive) |  | > 100 µM (inactive) | > 100 µM (inactive) | 5.4 µM (inactive) | > 100 µM (inactive) | > 100 µM (inactive) | 96.8 µM (inactive) | > 100 µM (inactive) | > 100 µM (inactive) | > 100 µM (inactive) |
| COC(=O)CCC1CCc2c(OC)ccc(O)c2C1=O (configuration not stated) | > 100 µM (inactive) | > 100 µM (inactive) | > 100 µM (inactive) | > 100 µM (inactive) | > 100 µM (inactive) | > 100 µM (inactive) | > 100 µM (inactive) | > 100 µM (inactive) | > 100 µM (inactive) | > 100 µM (inactive) | > 100 µM (inactive) | > 100 µM (inactive) | > 100 µM (inactive) | > 100 µM (inactive) | > 100 µM (inactive) | 55.8 µM (inactive) |
| CCC1(Cl)C(=O)NC(=O)N(C2CC(O)C(CO)O2)C1N=[N+]=[N-] (configuration not stated) | > 100 µM (inactive) | > 100 µM (inactive) | > 100 µM (inactive) | 41.2 µM (inactive) | > 100 µM (inactive) | > 100 µM (inactive) | > 100 µM (inactive) | > 100 µM (inactive) | > 100 µM (inactive) | > 100 µM (inactive) | > 100 µM (inactive) | > 100 µM (inactive) | > 100 µM (inactive) | > 100 µM (inactive) | 65.3 µM (inactive) | > 100 µM (inactive) |
| COc1cc2c(cc1OC)[C@@H](Nc1ccc(F)cc1)C1COC(=O)[C@@H]1C2c1cc(OC)c(O)c(OC)c1 (some centres not stated) | 5.53 µM (inactive) | 2.1 µM (inactive) | 0.0484 µM (active) | 3.4 µM (inactive) | 23.4 µM (inactive) | 0.671 µM (active) | 0.0982 µM (active) | 1.19 µM (inactive) | 7.18 µM (inactive) | 0.0147 µM (active) | 1.99 µM (inactive) | 1.56 µM (inactive) | 1.93 µM (inactive) | 0.14 µM (active) | 0.632 µM (active) | 2.14 µM (inactive) |
| Cc1ccc(C)c(N2C(=O)C(=O)C(c3nc4ccccc4o3)C(=O)C2=O)c1 | 32 µM (inactive) | > 100 µM (inactive) | > 100 µM (inactive) | > 100 µM (inactive) | 39.4 µM (inactive) |  | 17.3 µM (inactive) |  | > 100 µM (inactive) | 27.2 µM (inactive) | > 100 µM (inactive) | > 100 µM (inactive) | 67.5 µM (inactive) | 17 µM (inactive) | 43.6 µM (inactive) | > 100 µM (inactive) |
| COC(=O)c1cc2c3ccccc3n(C(C)=O)c2cn1 | > 100 µM (inactive) |  | > 100 µM (inactive) | 43.9 µM (inactive) | 98.6 µM (inactive) | 63.4 µM (inactive) | 35.7 µM (inactive) | 59.2 µM (inactive) | 45.8 µM (inactive) | 41.6 µM (inactive) | 56.4 µM (inactive) | > 100 µM (inactive) | > 100 µM (inactive) | 38.8 µM (inactive) | 83.4 µM (inactive) | > 100 µM (inactive) |
| COc1ccc([C@H]2[C@@H]3CCc4ccccc4C3=NN2C(N)=S)cc1OC | 45.5 µM (inactive) | 85.9 µM (inactive) | 41.9 µM (inactive) | 39.7 µM (inactive) | 51.4 µM (inactive) | 32.6 µM (inactive) | 22.9 µM (inactive) | 22.4 µM (inactive) | > 100 µM (inactive) | 31.1 µM (inactive) | 74.3 µM (inactive) | > 100 µM (inactive) |  | 32.4 µM (inactive) | 34.6 µM (inactive) | 36.1 µM (inactive) |
| Cc1cn(C2CC3C(COCN3O)O2)c(=O)[nH]c1=O (configuration not stated) | > 100 µM (inactive) | > 100 µM (inactive) | > 100 µM (inactive) | > 100 µM (inactive) | > 100 µM (inactive) | > 100 µM (inactive) | > 100 µM (inactive) | > 100 µM (inactive) | > 100 µM (inactive) | > 100 µM (inactive) | > 100 µM (inactive) | > 100 µM (inactive) | > 100 µM (inactive) | > 100 µM (inactive) | > 100 µM (inactive) | > 100 µM (inactive) |
| CC1OC(OC2C(OC(=O)[C@]34CCC(C)(C)CC3C3=CCC5[C@@]6(C)C[C@H](O)[C@H](OC7OC(CO)C(O)C(O)C7N)[C@@](C)(C(=O)O)C6CC[C@@]5(C)C3(C)CC4)OCC(O)C2O)C(O)C(O)C1OC1OCC(O)C(O)C1O (some centres not stated) | > 100 µM (inactive) | > 100 µM (inactive) | > 100 µM (inactive) | > 100 µM (inactive) | > 100 µM (inactive) | > 100 µM (inactive) | > 100 µM (inactive) | > 100 µM (inactive) | > 100 µM (inactive) | > 100 µM (inactive) | > 100 µM (inactive) | > 100 µM (inactive) | > 100 µM (inactive) | > 100 µM (inactive) | > 100 µM (inactive) | > 100 µM (inactive) |
| CC1=CC(=O)CCC2(C)C1CC[C@@H]2OC=O (some centres not stated) | > 100 µM (inactive) | > 100 µM (inactive) | > 100 µM (inactive) | > 100 µM (inactive) | > 100 µM (inactive) | > 100 µM (inactive) | > 100 µM (inactive) | > 100 µM (inactive) | > 100 µM (inactive) | > 100 µM (inactive) | > 100 µM (inactive) | > 100 µM (inactive) | > 100 µM (inactive) | > 100 µM (inactive) | > 100 µM (inactive) | > 100 µM (inactive) |
| CC1=CCC2(C#N)CCC1C2=O (configuration not stated) | > 100 µM (inactive) | > 100 µM (inactive) | > 100 µM (inactive) |  | > 100 µM (inactive) | > 100 µM (inactive) | > 100 µM (inactive) | > 100 µM (inactive) | > 100 µM (inactive) | > 100 µM (inactive) | > 100 µM (inactive) | > 100 µM (inactive) | > 100 µM (inactive) | > 100 µM (inactive) | > 100 µM (inactive) | > 100 µM (inactive) |
| COc1cccc(NC(=O)C(C)(C)C)c1SSc1c(NC(=O)C(C)(C)C)cccc1OC | 22.7 µM (inactive) | 18.1 µM (inactive) | 44.9 µM (inactive) | 20.3 µM (inactive) | 37.9 µM (inactive) | 15.4 µM (inactive) | 20.3 µM (inactive) | 22.9 µM (inactive) | > 100 µM (inactive) | 17.7 µM (inactive) | 19.3 µM (inactive) | > 83.4 µM (inactive) | 44.1 µM (inactive) | 17.1 µM (inactive) | 35 µM (inactive) | 31.5 µM (inactive) |
| CN(C)C(=O)Nc1c([N+](=O)[O-])cc(C(F)(F)F)cc1[N+](=O)[O-] | 27.8 µM (inactive) | > 100 µM (inactive) | 45 µM (inactive) | 8.45 µM (inactive) | 19.5 µM (inactive) | 28.8 µM (inactive) | 19.4 µM (inactive) | 37.6 µM (inactive) | > 100 µM (inactive) | 78.5 µM (inactive) | 40.4 µM (inactive) | > 100 µM (inactive) | 17.2 µM (inactive) | 79.1 µM (inactive) | 27.7 µM (inactive) | > 100 µM (inactive) |
| Cc1cccc(C2SCc3nc4ccccc4n32)c1 (configuration not stated) |  | 36.7 µM (inactive) | 37 µM (inactive) | 14.9 µM (inactive) | 17.8 µM (inactive) | 28.6 µM (inactive) | 6.78 µM (inactive) | 14.2 µM (inactive) | 21.9 µM (inactive) | 25.9 µM (inactive) | 36.1 µM (inactive) | 24.7 µM (inactive) | 14.3 µM (inactive) | 31.8 µM (inactive) | > 10 µM (inactive) |  |
| N#CC(N)(C(=O)C(=O)NCCCNC(=O)C(=O)C(N)(C#N)c1ccc(Cl)cc1)c1ccc(Cl)cc1 (configuration not stated) | > 100 µM (inactive) | > 100 µM (inactive) | > 100 µM (inactive) | > 100 µM (inactive) | > 100 µM (inactive) | > 100 µM (inactive) | 54.7 µM (inactive) | 95.3 µM (inactive) | > 100 µM (inactive) | > 100 µM (inactive) | > 100 µM (inactive) | > 100 µM (inactive) | > 100 µM (inactive) | > 100 µM (inactive) | > 100 µM (inactive) | > 100 µM (inactive) |

From ChEMBL document CHEMBL1201862, “PubChem BioAssay data set” (2004)
